Results from US7183394B1, “Helical nucleopeptides” (priority 2000, dated 2007).

Experiments:
Assay type in all cases: binding
d(A3AGGAGA3) [1] = test: Thermal UV denaturation (Tm), antiparallel target d(A3AGGAGA3); conditions: antiparallel N/3′; 5 μM each in TE buffer pH 7, incubated overnight at 4° C.
Method: (§1) The N-caps investigated consisted of a series of arenyl and aliphatic carboxylic acids. […] Thermal UV denaturation (Tm) data for the equilibria between N-cap-CTCCT and d(A3GAGGAA3) (SEQ. ID NO.: 5) (N/5′ or parallel orientation) and N-cap-CTCCT and d(A3AGGAGA3) (SEQ. ID NO.: 4) (N/3′ or antiparallel orientation) are collected in Table 2. Thermal UV denaturation curves were obtained with sample solutions made by combining the N-capped (αPNA and ssDNA components (5 μM each) in TE buffer (10 mM Tris-HCl, 1 mM EDTA, pH 7). These solutions were then incubated overnight at 4° C.

d(A3GAGGAA3) = test: Thermal UV denaturation (Tm), parallel target d(A3GAGGAA3); conditions: for Tm (cooling) / Tm (heating): parallel N/5′, 5 μM each in TE buffer pH 7, incubated overnight at 4° C.
Method: as §1

d(TA3G5A3T) = test: Thermal denaturation (Tm) of complex with d(TA3G5A3T); conditions: for Tm (cooling) / Tm (heating): Table 3, N-4-(cyclohexyl)butyryl cap
Method: The α-helical secondary structure (˜26%) of these backbone 1 αPNAs in the absence of DNA was confirmed by circular dichroism (CD) studies in H2O. Both the N-terminal linked (b1) and C-terminal-linked (b1′) cysteine dimers formed complexes with d(A10) in H2O (Table 1, entries 1 and 2). […] The homothymine b1αPNAs required a relatively long incubation period (up to 4 days at 4° C. until constant absorbance was reached) due to the slow kinetics of annealing.
(§2) (Cf. Corey, D. R. J. Am. Chem. Soc. 1995, 117, 9373–9374). […] Even the T5(b2) module hybridized with d(A10) (SEQ ID NO.: 2)—albeit weakly as expected for a complex held together by only A•T base pairs (entry 5). […] This implies that equilibration is being achieved during the cooling cycle. This Tm is 20° C. higher than that of C5(b1)•d(TA3G5A3T) in H2O (compare entries 6 and 7) and 35° C. higher than the corresponding DNA•DNA duplex (in TE-buffer+150 mM NaCl). […] (Marky, L. A.; Breslauer, K. J. Biopolymers 1987, 26, 1601–1620). Added salt was expected to disrupt favorable charge—charge interactions between cationic αPNAs and anionic DNA.
(§3) This reduction in melting temperature presumably arises from residual hydration of the mismatched nucleobases and provides additional support for our proposed Watson-Crick binding model.

d(A3GGAGGA3) [2] = test: Thermal denaturation (Tm) of complex with d(A3GGAGGA3)
Method: as §2, §3

d(A3GGAGGA3) [3] = test: CD titration (Job plot) with d(A3GGAGGA3); conditions: 258 nm, 5° C., total concentration 12 μM, water
Method: Spectra were recorded at 5° C. using a JASCO J-600 CD spectro-polarimeter. Samples having a total concentration ([αPNA]+[DNA]) of 12 μM were made up in doubly deionized water and placed in a stoppered optical quartz cell (1 cm pathlength). Dry air was purged through the sample compartment. Each data point represents the average of eight (baseline corrected) points. […] This is in line with the PAGE experiment with T5(b2)-dimer and d(C3T(TC2)2A10C(TC2)3) (SEQ. ID NO.: 6).

d(A3AGGAGA3) [4] = test: Thermal UV denaturation (Tm), antiparallel target d(A3AGGAGA3); conditions: Table 1; antiparallel (N/3′) orientation
[5] = Table 3, N-4-(cyclohexyl)butyryl cap

Row | Substance | Tm (heating) (d(A3AGGAGA3) [1]) [°C] | Tm (cooling) (d(A3GAGGAA3)) [°C] | Tm (heating) (d(A3GAGGAA3)) [°C] | further results
1 | 3-cyclopentylpropionyl-CTCCT [C5H9CH2CH2CO] | 33.8 | 38.2 | 43.7 | 
2 | 4-(1-pyrenyl)butyryl-CTCCT [1-pyrenyl(CH2)3CO] | 39.0 | 43.8 | 42.6 | 
3 | 4-(2-naphthyl)butyryl-CTCCT [2-naphthyl(CH2)3CO] | 36.3 | 40.0 | 42.7 | 
4 | 4-(p-methoxyphenyl)butyryl-CTCCT [p-MeOC6H4(CH2)3CO] | 34.2 | 37.0 | 41.3 | 
5 | 4-(p-nitrophenyl)butyryl-CTCCT [p-NO2C6H4(CH2)3CO] | 34.4 | 37.8 | 41.6 | 
6 | 4-cyclohexylbutyryl-CCCCC [C6H11(CH2)3CO-CCC CC] |  |  |  | Tm (cooling) (d(TA3G5A3T)): 66 °C; Tm (heating) (d(TA3G5A3T)): 65 °C; Tm (heating) (d(TA3G5A3T); listed as N-4-(cyclohexyl)butyryl-CCCCC): 64.9 °C
7 | 4-cyclohexylbutyryl-CCTCC [C6H11(CH2)3CO-CCT CC] |  |  |  | Tm (cooling) (d(TA3G5A3T)): 46 °C; Tm (heating) (d(TA3G5A3T)): 50 °C; lowering of Tm (cooling) by a single base-pair mismatch (d(TA3G5A3T); mismatched complex): 10 °C; lowering of Tm (heating) by a single base-pair mismatch (d(TA3G5A3T); mismatched complex): 15 °C; Tm (cooling) (d(A3GGAGGA3) [2]; [5]): 51 °C; Tm (heating) (d(A3GGAGGA3) [2]; [5]): 60 °C; Tm (heating) (d(A3GGAGGA3) [2]; Table 3, N-4-(cyclohexyl)butyryl cap, listed as N-4-(cyclohexyl)butyryl-CCTCC): 60.8 °C
8 | 4-cyclohexylbutyryl-CTCCT [C6H11CH2CH2CH2CO] | 33.4 | 43.7 | 47.9 | Tm increase compared to the parent N-acetylated αPNA (d(A3GAGGAA3); parallel, heating, cooling): 11–12 °C
9 | 4-phenylbutyryl-CTCCT [C6H5(CH2)3CO] | 33.6 | 38.5 | 41.8 | 
10 | Ac-Cys^Acm-Lys-(Ser^C-Ala2-Lys)2-Ser^T-(Ala2-Lys-Ser^C)2-Gly-Lys-NH2 [CCTCC(b2)] |  |  |  | Tm (d(TA3G5A3T); TE-buffer): 38 °C; Tm (d(A3GGAGGA3) [2]; Table 1): 49 °C; Tm (d(A3GAGGAA3); Table 1, parallel (N/5′) orientation): 37 °C; CD intensity minimum (d(A3GGAGGA3) [3]): 50 mol % αPNA; Tm (d(A3AGGAGA3) [4]): 32 °C
11 | n-butyryl-CTCCT [CH3CH2CH2CO] | 30.2 | 36.7 | 40.0 | 
12 | n-hexanoyl-CTCCT [CH3CH2CH2CH2CH2CO] | 33.4 | 35.0 | 41.0 | 
